Source: paper PMC7002704, “Inhibitory effect of Citrus flavonoids on the in vitro transport activity of human urate transporter 1 (URAT1/SLC22A12), a renal re-absorber of urate” (NPJ Science of Food, 2020)
Where two headings read alike, the source gives them in different places.

How the values were obtained:
[1] = target: T1, urate transporter 1 (URAT1/SLC22A12) (Homo sapiens, UniProt Q96S37)
T1 sequence (Q96S37 1-553): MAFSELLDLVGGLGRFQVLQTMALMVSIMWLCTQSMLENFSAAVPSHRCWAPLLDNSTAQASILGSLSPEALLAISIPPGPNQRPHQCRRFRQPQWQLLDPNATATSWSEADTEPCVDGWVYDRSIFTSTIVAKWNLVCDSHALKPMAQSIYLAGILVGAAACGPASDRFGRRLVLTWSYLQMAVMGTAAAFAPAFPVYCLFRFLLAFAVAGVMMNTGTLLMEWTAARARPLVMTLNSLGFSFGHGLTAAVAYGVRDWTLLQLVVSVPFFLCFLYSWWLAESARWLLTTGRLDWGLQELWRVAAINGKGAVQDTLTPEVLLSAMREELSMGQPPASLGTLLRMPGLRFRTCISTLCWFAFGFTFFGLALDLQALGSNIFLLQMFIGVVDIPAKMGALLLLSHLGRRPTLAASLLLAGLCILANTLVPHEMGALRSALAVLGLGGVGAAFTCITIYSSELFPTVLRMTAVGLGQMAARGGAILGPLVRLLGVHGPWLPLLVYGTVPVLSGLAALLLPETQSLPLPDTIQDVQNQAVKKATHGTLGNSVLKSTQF

[2] = target: T1, urate transporter 1 (URAT1/SLC22A12); assay: [[…]-14C]-urate uptake inhibition in URAT1-expressing […] cells; assay type: cell-based; set-up: EGFP-tagged URAT1 wild type (pEGFP-C1)

Row | SMILES | IC50 [2] [µM] | also measured
1 | CCc1oc2ccccc2c1C(=O)c1cc(Br)c(O)c(Br)c1 [benzbromarone] | – | % inhibition at 10 μM [1]: 96
2 | COc1ccc([C@@H]2CC(=O)c3c(O)cc(O)cc3O2)cc1O [hesperetin] | 25.7 | –
3 | O=C1C[C@@H](c2ccc(O)cc2)Oc2cc(O)cc(O)c21 [naringenin] | 16.1 | –
4 | COc1ccc(-c2cc(=O)c3c(OC)c(OC)c(OC)c(OC)c3o2)cc1OC [nobiletin] | – | IC50 ([2]; read-out: IC50): 17.6 µM
